From PMC6855259, “Acylation-coupled lipophilic induction of polarisation (Acyl-cLIP): a universal assay for lipid transferase and hydrolase enzymes” (Chemical Science, 2019)
Structures can show the parent of a compound that is named as a salt. One block for each compound: values may come before it.

Key:
[1] = test system: SHH acylation in HEK-293 SHH+ cells; test: In-cell YnC15 tagging assay of SHH acylation; format: cell-based, human; settings: inhibitors 20 µM, YnC15, AzTB ligation; for inhibition of SHH acylation (YnC15 tagging) by in-gel fluorescence: IGF; for inhibition of SHH acylation assessed by increased molecular weight in anti-SHH blotting: α-SHH western blot
Protocol: In-Cell YnC15 Tagging Assay
HEK293a SHH+ cells (500,000 cells/well) were plated in a 6-well plate in DMEM/FBS (3 mL/well) and cultured for 24 h. Cells were treated with inhibitors in DMSO (20 µM), two RUSKI-201 (20 µM) blind-positive controls and two DMSO (7.5 µL) blind-negative controls.
After 1 h, YnC15 (3 µL, 20 mM in DMSO) was added and cells cultured for a further 6 h before washing with PBS. Cells were lysed in PBS with Triton X-100 (1%), SDS (0.1% (w/v)) and Complete EDTA-free protease inhibitor cocktail (Roche Diagnostics). Cells were removed from plates by scraping, and lysates centrifuged (13,000 g, 10 min, 4 °C). The protein concentration of the supernatant was estimated using the DC Protein Assay (Bio-Rad) and adjusted to 1 mg/mL with lysis buffer. AzTB (1 µL, 10 mM in DMSO), CuSO4 (2 µL, 50 mM in H2O), TCEP (2 µL, 50 mM in H2O) and TBTA (1 µL, 10 mM in DMSO) were combined, and this mixture (6 µL) added to the lysate (100 µL). Samples were shaken at RT for 1 h, then proteins precipitated by addition of methanol (200 µL), chloroform (50 µL) and water (100 µL) followed by centrifugation (13,000 g, 5 min, 4 °C). The upper aqueous layer was removed without disturbing the protein layer at the interphase, methanol (0.5 mL) was added, and the precipitated proteins isolated by centrifugation (13,000 g, 10 min, 4 °C). Protein pellets were […]
(§1) washed twice with methanol, briefly air-dried and re-dissolved in PBS containing SDS (0.2% (w/v)) and DTT (0.1 mM) using sonication to a final concentration of 1 mg/mL.
(§2) 10 µg of protein were separated on a 15% SDS-polyacrylamide gel. Fluorescence was recorded using a Typhoon imager (GE Healthcare; excitation laser: 532 nm, emission filter:
(§3) Proteins were transferred to a nitrocellulose membrane by wet transfer (100 V, 1 h), and membranes blocked with BSA (5% (w/v)) in TBS-T (50 mM TRIS, 150 mM NaCl, 0.1% Tween-20, pH 7.5) for 1 h at RT, followed by overnight incubation at 4°C with rabbit α-SHH (Santa Cruz Biotechnology; sc-9024; 1:200) in TBS-T with BSA (0.5% (w/v)) or mouse α-Tubulin (Santa Cruz Biotechnology; sc-8035; 1:200) in TBS-T with BSA (0.5% (w/v)). Membranes were washed with TBS-T (4 × 5 min) and incubated at RT for 1 h with HRP-conjugated Goat-α-mouse IgG (Advansta; 1:10,000) in TBS-T with BSA (0.5% (w/v)) or Goat-α-rabbit IgG (Advansta; 1:10,000) in TBS-T with BSA (0.5% (w/v)). Membranes were washed with TBS-T (4 × 5 min) and developed with Luminata Crescendo Western HRP substrate (Millipore) on a Fujifilm LAS-3000 imager. YnC15-labelled SHH band intensities were quantified using ImageJ 1.50i (National Institute of Health, USA).
HEK293a SHH+ cells (5,000 cells/well) were plated in a 96-well plate in DMEM/FBS […]
(50 µL/well) and cultured for 24 h. […]

[2] = test system: HH signalling in SHH-Light2 cells; test: SHH-Light2 signalling assay (Firefly luciferase); format: cell-based; settings: inhibitors 0.041-30 µM
Protocol: (§4) SHH-Light2 Signalling Assay
(§5) HEK293a SHH+ cells (120,000 cells/well) were plated in a 12-well cell culture treated plate (Nunc) in DMEM/FBS (1 mL/well) and cultured for 24 h. Cells were washed with PBS, followed by the addition of DMEM/FBS (1 mL) containing DMSO (0.2%) or varying inhibitor concentrations in DMSO (0.041-30 µM). SHH-Light2 cells (20,000 cells/well) were plated in a 96-well plate in DMEM/FCS (50 µL/well). After 24 h, conditioned medium (300 µL) was removed from each well of the HEK293a SHH+ cells, centrifuged (1,000 g, 10 min), and added to three wells of SHH-Light2 cells (100 µL/well, 150 µL final volume). SHH-Light2 cells were cultured for a further 48 h, and washed with PBS prior to analysis. Firefly and Renilla luciferase activity was recorded using the Dual-Luciferase reporter system (Promega Corporation, USA).
(§6) Passive lysis buffer (20 µL) was added to each well and cells incubated for 30 min at RT. The lysate (5 µL) was transferred to a white opaque 96-well plate (Corning, 3362). Luciferase Assay Reagent II (20 µL/well) was added and the luminescence immediately recorded using a SpectraMax i3x spectrophotometer (Molecular Devices LLC). Stop&Glo (1x) substrate in Stop&Glo buffer (20 µL/well) was added and the luminescence immediately recorded. […]

[3] = test system: HEK-293 SHH+ cells; test: MTS viability assay; format: cell-based, human; settings: 72 h, inhibitors 0.14-100 µM
Protocol: as §1, §2
as §3, with “Membranes were washed with TBS-T (4 × 5 min) and developed with Luminata Crescendo Western HRP substrate (Millipore) on a Fujifilm LAS-3000 imager.” left out
HEK293a SHH+ cells (5,000 cells/well) were plated in a 96-well plate in DMEM/FBS (50 µL/well) and cultured for 24 h. […] The absorption at 490 nm was recorded using an EnVision Xcite 2104 and responses normalised to vehicle control and background corrected to Puromycin-treated samples.

[4] = target: BSA; set-up: method as in PMID 11964183; settings: read-out: Kd of BSA for palmitic acid; cited from earlier work
[5] = Detergent/BSA titration for polarised emission of Pal-SHH-FAM (fluorescence anisotropy); settings: titration with Pal-SHH-FAM; read-out: detergent concentration required for half-maximal polarised signal (EC50)
Protocol: Fluorescence measurements were recorded on an EnVision Xcite 2104 (PerkinElmer).
FAM-labelled peptides were measured using a FITC FP D505fp mirror module, FITC FP 480 nm excitation filter (30 nm bandwidth), FITC FP P-pol 535 nm first emission filter (40 nm bandwidth), and FITC FP S-pol 535 nm second emission filter (40 nm bandwidth). Continuous reaction monitoring was conducted using measurement height = 9.52 mm, 8 flashes/well, PMT gain = 319, and G-factor = 1.09.
TAMRA-labelled peptides were measured using a BODIPY TMR FP D555fp mirror module, BODIPY TMR FP 531 nm excitation filter (25 nm bandwidth), BODIPY TMR FP P-pol 579 nm first emission filter (25 nm bandwidth), and BODIPY TMR FP S-pol 579 nm second emission filter (25 nm bandwidth). Continuous reaction monitoring was conducted using measurement height = 6.5 mm, 200 flashes/well, PMT gain = 255, and G-factor = 1.6.
Detergents (2 mM) or BSA (0.15 mM) were tested for generation of polarised fluorescence from Pal-SHH-FAM or SHH-FAM (0.1 µM) in 100 mM MES, 20 mM NaCl. Detergent and BSA titrations were performed using 2-fold serial dilutions.

[6] = cited from earlier work
[7] = target: T1, HHAT (Homo sapiens, UniProt Q5VTY9); test: Pilot HTS Acyl-cLIP screen of FDA-approved drugs, purified HHAT, stopped-assay conditions; format: biochemical; settings: compounds screened at 25 μM
T1 construct: FLAG (C); His (C); made in house; host or cells: HEK293a cells stably overexpressing HHAT-FLAG-His

[8] = test system: SHH-Light2 cells; test: Constitutive Renilla luciferase control for cellular viability in SHH-Light2 assay; format: cell-based
Protocol: as §4, §5, §6

T1 sequence (Q5VTY9 whole entry): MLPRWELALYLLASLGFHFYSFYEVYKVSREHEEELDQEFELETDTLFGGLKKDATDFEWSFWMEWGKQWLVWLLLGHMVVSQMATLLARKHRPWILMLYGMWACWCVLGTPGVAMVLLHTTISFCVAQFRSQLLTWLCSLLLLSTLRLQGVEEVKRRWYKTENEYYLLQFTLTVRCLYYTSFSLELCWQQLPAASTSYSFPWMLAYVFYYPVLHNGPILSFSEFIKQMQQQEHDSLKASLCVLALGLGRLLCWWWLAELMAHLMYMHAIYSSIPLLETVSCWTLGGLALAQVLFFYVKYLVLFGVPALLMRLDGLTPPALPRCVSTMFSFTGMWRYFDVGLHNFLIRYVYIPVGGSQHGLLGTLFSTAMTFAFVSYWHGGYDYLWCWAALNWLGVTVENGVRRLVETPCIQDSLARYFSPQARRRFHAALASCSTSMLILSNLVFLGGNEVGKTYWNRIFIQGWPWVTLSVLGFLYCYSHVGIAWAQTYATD

Compound: CN(C)CCCN1c2ccccc2CCc2ccc(Cl)cc21 [Clomipramine·HCl]
inhibition of SHH acylation (YnC15 tagging) by in-gel fluorescence ([1]; listed as Clomipramine): inhibition
inhibition of SHH acylation (YnC15 tagging) by in-gel fluorescence ([1]; listed as clomipramine): showed inhibition of SHH acylation
inhibition of SHH acylation assessed by increased molecular weight in anti-SHH blotting [1]: did not show inhibition of SHH acylation
concentration at which HH signalling is inhibited ([2]; listed as Clomipramine): 30 µM
concentration at which HH signalling is inhibited ([2]; listed as clomipramine): > 30 µM
viability in MTS assay ([3]; listed as Clomipramine): cytotoxicity
viability in MTS assay ([3]; listed as clomipramine): decreased viability at high concentrations

Compound: CCCCCCCCCCCCCCCC(=O)O [palmitic acid]
Kd [4]: 0.104 µM

EC50 [5]: 150 µM
Compound: CCCCCCCCCCCCO[C@@H]1O[C@H](CO)[C@@H](O[C@H]2O[C@H](CO)[C@@H](O)[C@H](O)[C@H]2O)[C@H](O)[C@H]1O [DDM, n-dodecyl β-D-maltoside]
critical micelle concentration (CMC) [6]: 170 µM

Compound: CC(C)C[C@H]1C(=O)N2CCC[C@H]2[C@]2(O)O[C@](NC(=O)[C@@H]3C=C4c5cccc6[nH]c(Br)c(c56)C[C@H]4N(C)C3)(C(C)C)C(=O)N12 [Bromocriptine Mesylate]
inhibition at 25 µM [7]: > 80%
inhibition of SHH acylation (YnC15 tagging) by in-gel fluorescence ([1]; listed as Bromocriptine): inhibition
inhibition of SHH acylation (YnC15 tagging) by in-gel fluorescence ([1]; listed as bromocriptine): showed inhibition of SHH acylation
inhibition of SHH acylation assessed by increased molecular weight in anti-SHH blotting [1]: did not show inhibition of SHH acylation
cytotoxicity in SHH-Light2 signalling assay [8]: general cytotoxicity

EC50 [5]: 180 µM
Compound: Triton™ X-100 [TX-100]
critical micelle concentration (CMC) [6]: 200 µM
